pIC50: −log10 of the molar value.
How the values were obtained:
Leishmania infantum [1] = experiment: Antileishmanial activity against promastigote stage of Leishmania infantum MHOM/PT/88/IMT151 as parasite growth inhibition after 48 hrs by MTT assay; assay type: functional, organism-based; conditions: MHOM/PT/88/IMT151, 48 h
Leishmania infantum [2] = experiment: Antileishmanial activity against amastigote stage of Leishmania infantum MHOM/PT/88/IMT151 infected in human THP-1 cells assessed as parasite growth inhibition after 48 hrs by microscopic analysis; assay type: functional, organism-based; conditions: MHOM/PT/88/IMT151, THP-1, 48 h
Leishmania donovani [3] = experiment: Antileishmanial activity against late log/stationary phase of promastigote stage of Leishmania donovani MHOM/NP/02/BPK282/0c14 assessed as parasite growth inhibition after 72 hrs by plate reader based Alamar blue assay; assay type: functional, organism-based
Leishmania donovani [4] = experiment: Antileishmanial activity against promastigote stage of Leishmania donovani MHOM/ET/67/HU3 assessed as parasite growth inhibition after 3 days by MTT assay; assay type: functional, organism-based; conditions: MHOM/ET/67/HU3, 72 h
[5] = Solubility of the compound; assay type: physicochemical
Leishmania major = experiment: Antileishmanial activity against late log/stationary phase of promastigote stage of Leishmania major MHOM/SU/73/5-ASKH assessed as parasite growth inhibition after 72 hrs by plate reader based Alamar blue assay; assay type: functional, organism-based
[6] = Selectivity index, ratio of CC50 for African green monkey Vero cells to IC50 for Leishmania donovani MHOM/NP/02/BPK282/0c14; assay type: toxicity; conditions: for selectivity ratio: Vero cells, read-out: Ratio CC50/IC50
Leishmania tropica = experiment: Antileishmanial activity against late log/stationary phase of promastigote stage of Leishmania tropica MHOM/SU/74/K27 assessed as parasite growth inhibition after 72 hrs by plate reader based Alamar blue assay; assay type: functional, organism-based; conditions: MHOM/SU/74/K27, 72 h
Leishmania infantum [7] = experiment: Antileishmanial activity against late log/stationary phase of promastigote stage of Leishmania infantum MHOM/TN/80/IPT1 assessed as parasite growth inhibition after 72 hrs by plate reader based Alamar blue assay; assay type: functional, organism-based; conditions: MHOM/TN/80/IPT1, 72 h
Leishmania donovani [8] = experiment: Antileishmanial activity against amastigote stage of Leishmania donovani MHOM/NP/02/BPK282/0c14 infected in human THP1 cells assessed as parasite growth inhibition after 72 hrs by Giemsa staining-based light microscopic analysis; assay type: functional, organism-based; conditions: MHOM/NP/02/BPK282/0c14, THP-1, 72 h
[9] = (§1) Cytotoxicity against African green monkey Vero cells after 72 hrs by plate reader based Alamar blue assay; assay type: cell-based; conditions: chlorocebus sabaeus, Vero cells
Vero = experiment: as §1; assay type: cell-based; conditions: chlorocebus sabaeus, vero, 72 h
Leishmania donovani [10] = experiment: Antileishmanial activity against promastigote stage of Leishmania donovani MHOM/IN/83/AG83 assessed as inhibition of parasite viability after 48 hrs by MTS assay; assay type: functional, organism-based; conditions: MHOM/IN/83/AG83, 48 h
Leishmania donovani [11] = experiment: Antileishmanial activity against promastigote stage of Leishmania donovani assessed as parasite growth inhibition after 72 hrs by resazurin dye based assay; assay type: functional, organism-based
Leishmania donovani [12] = experiment: Antileishmanial activity against promastigote stage of Leishmania donovani NLB-065 assessed as parasite growth inhibition after 72 hrs by microscopic analysis; assay type: functional, organism-based; conditions: NLB-065, 72 h
[13] = Leishmania donovani, MHOM/NP/02/BPK282/0c14, 72 h

| SMILES | pIC50 (Leishmania donovani [3]; [13]) | selectivity ratio [6] | CC50 at 72 h [9] [µM] | further results |
| --- | --- | --- | --- | --- |
| O=C1CCC2(CC1)OOC1(O2)C2CC3CC(C2)CC1C3 (centres undefined) | – | – | – | pIC50 (Leishmania infantum [1]): 5.03; pIC50 (Leishmania infantum [2]): 4.10 |
| COC(=O)C1CC(c2ccccc2)(c2ccccc2)OOC1(C)OC (centres undefined) | < 4.40 | – | – | – |
| C=CCO[C@@]1(C(F)(F)F)O[C@@H]2O[C@@]3(C)C[C@H]4[C@H](C)CC[C@@H](C1=C)[C@@]24OO3 | – | – | – | pIC50 (Leishmania donovani [4]): 4.91 to 5.26 |
| C=CCO[C@@]1(C(F)(F)F)O[C@@H]2O[C@@]3(C)C[C@H]4[C@H](C)CC[C@@H]([C@H]1C)[C@@]24OO3 | – | – | – | pIC50 (Leishmania donovani [4]): 5.20 to 5.80 |
| CCCCC1(O)OOC(c2ccccc2)(c2ccccc2)CC1C(=O)OC (centres undefined) | – | – | – | solubility [5]: Insoluble |
| C[C@@H]1CC[C@H]2[C@@H](C)[C@](OO)(C(F)(F)F)O[C@@H]3O[C@@]4(C)C[C@@H]1[C@]32OO4 | – | – | – | pIC50 (Leishmania donovani [4]): 4.90 to 5.60 |
| COC1(C)OOC(c2ccccc2)(c2ccccc2)CC1CO (centres undefined) | < 4.40 | – | – | – |
| COc1ccc(N[C@@]2(C(F)(F)F)O[C@@H]3O[C@@]4(C)C[C@H]5[C@H](C)CC[C@@H]([C@H]2C)[C@@]35OO4)cc1 | – | – | – | pIC50 (Leishmania donovani [4]): 5.82 to 6.42 |
| COC(=O)C1CC(c2ccccc2)(c2ccccc2)OOC1(C)O (centres undefined) | < 4.40 | – | – | – |
| NCC1CC[C@]2(CC1)OO[C@]1(O2)C2CC3CC(C2)CC1C3 (some centres undefined) | – | – | – | pIC50 (Leishmania infantum [1]): 5.45; pIC50 (Leishmania infantum [2]): 3.97 |
| CCCCC1(CCCC)C[C@@H](COCc2cn(CC(O)(Cn3cncn3)c3ccc(F)cc3F)nn2)[C@@](C)(OC)OO1 (mixture of isomers) | 4.80 | 12.2 | 195 | pIC50 (Leishmania major): 4.42; pIC50 (Leishmania tropica): 4.42; pIC50 (Leishmania infantum [7]): 4.92; pIC50 (Leishmania donovani [8]): 4.89 |
| CO[C@@]1(C)OOC2(CC[C@H]3C[C@@H]2C3(C)C)C[C@H]1CNCCCn1ccnc1 (mixture of isomers) | 4.79 | 16.8 | 274 | pIC50 (Leishmania major): 4.81; pIC50 (Leishmania tropica): 4.46; pIC50 (Leishmania infantum [7]): 5.22; pIC50 (Leishmania donovani [8]): 4.63 |
| CO[C@]1(C)OOC2(CC[C@H]3C[C@@H]2C3(C)C)C[C@H]1CNCCCn1ccnc1 (mixture of isomers; form 1) | – | 18.3 | 300 | pIC50 (Leishmania donovani [3]): 4.79 |
| CO[C@]1(C)OOC2(CC[C@H]3C[C@@H]2C3(C)C)C[C@H]1CNCCCn1ccnc1 (mixture of isomers; form 2) | – | – | – | pIC50 (Leishmania major): 4.60; Ratio CC50/IC50 ([6]; vero): 34.6; pIC50 (Leishmania tropica): 4.62; pIC50 (Leishmania infantum [7]): 5.30; pIC50 (Leishmania donovani [3]): 5.10; pIC50 (Leishmania donovani [8]): 5.01; CC50 (Vero): 276 µM |
| CO[C@@]1(C)OOC(C)(C)C[C@H]1COCc1cn(CCC[P+](c2ccccc2)(c2ccccc2)c2ccccc2)nn1 (racemic) | < 4.40 | – | – | – |
| CCCCC1(CCCC)C[C@@H](C(=O)OC)[C@@](C)(O)OO1 (racemic) | < 4.40 | – | – | – |
| CCCCC1(CCCC)C[C@@H](CO)[C@](C)(OC)OO1 (racemic) | < 4.40 | – | – | – |
| CCCC[C@]1(OC)OOC(C)(C)C[C@H]1CNCCCn1ccnc1 (racemic) | < 4.40 | – | – | – |
| CCCCC1(CCCC)C[C@@H](CNCCCn2cncn2)[C@@](C)(OC)OO1 (racemic) | < 4.40 | – | – | – |
| CO[C@@]1(C)OOC(C)(C)C[C@H]1CNCCCn1ccnc1 (racemic) | < 4.40 | – | – | – |
| CO[C@@]1(C)OOC(c2ccccc2)(c2ccccc2)C[C@H]1CNCCCn1ccnc1 (racemic) | 5.12 | 6.7 | 50 | – |

| SMILES | pIC50 (Leishmania donovani [3]; [13]) | selectivity ratio [6] | CC50 at 72 h [9] [µM] | further results |
| --- | --- | --- | --- | --- |
| CCCCC1(CCCC)C[C@@H](CO)[C@@](C)(OC)OO1 (racemic) | < 4.40 | – | – | – |
| CCCCC1(CCCC)C[C@@H](C(=O)OC)[C@](C)(OC)OO1 (racemic) | < 4.40 | – | – | – |
| CCCCC1(CCCC)C[C@@H](CNCCCn2ccnc2)[C@@](CCCC)(OC)OO1 (racemic) | 5.21 | 5.2 | 32.5 | – |
| CO[C@@]1(C)OOC(c2ccccc2)(c2ccccc2)C[C@H]1COCc1cn(CCC[P+](c2ccccc2)(c2ccccc2)c2ccccc2)nn1 (racemic) | 4.86 | 24.3 | 280 | pIC50 (Leishmania major): 5.59; pIC50 (Leishmania tropica): 5.22; pIC50 (Leishmania infantum [7]): 5.00; pIC50 (Leishmania donovani [8]): 4.78 |
| CCCCC1(CCCC)C[C@@H](CNCCCNc2ccnc3cc(Cl)ccc23)[C@@](C)(OC)OO1 (racemic) | 5.80 | 2.5 | 4 | – |
| CCCC[C@]1(OC)OOC(c2ccccc2)(c2ccccc2)C[C@H]1CNCCCn1ccnc1 (racemic) | 5.38 | 2.3 | 9.5 | – |
| CO[C@@]1(C)OOC(c2ccc(F)cc2)(c2ccc(F)cc2)C[C@H]1CNCCCn1ccnc1 (racemic) | 4.92 | 7.8 | 93.6 | – |
| CCCCC1(CCCC)C[C@@H](C(=O)OC)[C@@](C)(OC)OO1 (racemic) | < 4.40 | – | – | – |
| CCCCC1(CCCC)C[C@@H](CNCCCn2ccnc2)[C@@](C)(OC)OO1 (racemic) | 5.12 | 13.5 | 74.5 | pIC50 (Leishmania major): 4.93; pIC50 (Leishmania tropica): 5.05; pIC50 (Leishmania infantum [7]): 5.52; pIC50 (Leishmania donovani [8]): 4.91 |
| CCCCC1(CCCC)C[C@@H](CNCCCn2ccnc2)[C@](C)(OC)OO1 (racemic) | 5.28 | 35 | 140 | pIC50 (Leishmania major): 5.49; pIC50 (Leishmania tropica): 5.52; pIC50 (Leishmania infantum [7]): 5.60; pIC50 (Leishmania donovani [8]): 5.00 |
| CCCCC1(CCCC)C[C@@H](COCc2cn(CCC[P+](c3ccccc3)(c3ccccc3)c3ccccc3)nn2)[C@](C)(OC)OO1 (racemic) | 4.40 | 5 | 200 | – |
| CCCCC1(CCCC)C[C@@H](COCc2cn(CCC[P+](c3ccccc3)(c3ccccc3)c3ccccc3)nn2)[C@@](C)(OC)OO1 (racemic) | 4.81 | 6.6 | 102 | – |
| C[C@@H]1[C@H](O)[C@@H](C)/C=C/C=C/C=C/C=C/C=C/C=C/C=C/[C@H](O[C@@H]2O[C@H](C)[C@@H](O)[C@H](N)[C@@H]2O)C[C@@H]2O[C@](O)(C[C@@H](O)C[C@@H](O)[C@H](O)CC[C@@H](O)C[C@@H](O)CC(=O)O[C@H]1C)C[C@H](O)[C@H]2C(=O)O [AMPHOTERICIN B] | 6.52 | 667 | – | pIC50 (Leishmania donovani [4]): 5.55 to 7.52 |
| C[C@@H]1CC[C@H]2[C@@H](C)C(=O)O[C@@H]3O[C@@]4(C)CC[C@@H]1[C@]32OO4 [ARTEMISININ] | < 4.40 | – | – | pIC50 (Leishmania donovani [10]): 3.80 to 4.00 |
| C[C@H]1[C@@H](O)O[C@@H]2O[C@@]3(C)CC[C@H]4[C@H](C)CC[C@@H]1[C@@]24OO3 [ARTENIMOL] | – | – | – | pIC50 (Leishmania donovani [4]): 4.69 to 5.39 |
| OC(Cn1cncn1)(Cn1cncn1)c1ccc(F)cc1F [FLUCONAZOLE] | < 4.40 | – | – | – |
| CCCCCCCCCCCCCCCCOP(=O)([O-])OCC[N+](C)(C)C [MILTEFOSINE] | – | – | – | pIC50 (Leishmania donovani [4]): 4.17 to 5.72 |
| NC[C@@H]1O[C@H](O[C@H]2[C@@H](O)[C@H](O[C@@H]3[C@@H](O)[C@H](N)C[C@H](N)[C@H]3O[C@H]3O[C@H](CO)[C@@H](O)[C@H](O)[C@H]3N)O[C@@H]2CO)[C@H](N)[C@@H](O)[C@@H]1O [PAROMOMYCIN] | – | – | – | pIC50 (Leishmania donovani [11]): 4.55 to 4.71 |
| CCN(CC)CCCCCCNc1cc(OC)cc2c(C)ccnc12 [SITAMAQUINE] | – | – | – | pIC50 (Leishmania donovani [4]): 3.75 to 4.44 |
| C[C@H]1[C@H](OC(=O)CCC(=O)O)O[C@@H]2O[C@@]3(C)CC[C@H]4[C@H](C)CC[C@@H]1[C@@]24OO3 [SODIUM ARESUNATE] | < 4.40 | – | – | pIC50 (Leishmania donovani [12]): 4.92 |
